From article PMC9414910, “Optimized ^68Ga-Labeled Urea-Based PSMA-Targeted PET Tracers for Prostate Cancer” (Pharmaceuticals, 2022)

Key:
[1] = Partition coefficient, octanol–water system; assay type: physicochemical; settings: octanol–water (v/v = 1:1), n = 3
Protocol: The partition coefficient of each novel radiotracer was determined using an octanol–water system (v/v = 1:1). The in vitro stability was determined using two systems (PBS and 5% BSA). The Ki value was measured by the NAALADase assay. The 22Rv1 and PC-3 cell lines were used for the cell-binding study and establishment of the tumor-bearing model (detailed information is shown in the Supplementary Materials).
PBS) and reported as log p ± SD. […]

22Rv1 cells (mild PSMA+) = test: Cell uptake / binding in 22Rv1 cells; assay type: cell-based, human; settings: 60 min incubation, 37 °C
Excerpt: Cell lines were kindly provided by the stem cell bank of the Chinese Academy of Sciences. The human prostate cancer epithelial cell lines 22Rv1 (mild PSMA+) and PC-3 (with no PSMA receptor) were used to evaluate the specific cell-binding affinity of the radiotracers, and the results were expressed as percentages of injected activity, IA%/10^6.
Cell Lines and Culture Condition
Cell lines were kindly provided by the stem cell bank, the Chinese Academy of Sciences. The human prostate cancer cell lines 22Rv1 ( mild PSMA positive) and PC3 (PSMA negative) were cultured in RPMI 1640 medium or F12K medium (CORNING, America), supplemented with 10% Fetal Bovine Serum
(GIBCO, The Netherlands) and 1% penicillin-streptomycin (CORNING, America) in a humidified incubator at 37 °C under 5% CO2. Each cell line was passaged when it was at around 80-90% confluence, and harvested using trypsin-ethylenediaminetetraacetic acid (trypsin-EDTA; 0.25% trypsin, 0.02% EDTA, all from KeyGEN BioTECH).
Cells were seeded separately in 24 well plates (1 x 10^5 cells in 1 mL medium/well) and incubated overnight, the medium was changed 2 h before the experiment. For the binding experiments, cells were incubated with novel […]
min, 30 min and 60 min (6 wells/time point). After incubation, the medium was removed and the cells were washed twice with ice-cold phosphate-buffered saline (0.5 mL). Finally, the cells were lysed by NaOH (0.5 M, 0.5 mL). Coincubation of 2-(phosphonomethyl) pentane-1,5-dioic acid […]
(2-PMPA) solution (2 μg/well) and each radiotracer for 60 min was conducted as the blocking experiment. The radioactivity of cells was measured by a γ-counter. The studies were performed in triplicate and the results were reported as the percentage injected activity (IA%/10^6 cells). […]

[2] = Blood pharmacokinetics in male ICR mice; assay type: in vivo; settings: 7.4 MBq i.v., two-compartment model
Protocol: Injection of novel radiotracers or [68Ga]Ga-PSMA-617 or [68Ga]Ga-PSMA-11 […]
mice (5 mice/group), and the blood sample (5 μL) of each mouse was collected by cutting down the tail end at different time points post injection. The radioactivity of blood samples were measured by a γ-counter and the pharmacokinetics data was calculated using the WinNonlin software.
Figure S3. Time-activity curves of the blood samplesafter injection of 7.4 MBq of [68Ga]Ga-PSMA-4PY (A), [68Ga]Ga-PSMA-Q (B),[68Ga]Ga-PSMA-P (C), [68Ga]Ga-PSMA-617 (D), [68Ga]Ga-PSMA-11 (E), [68Ga]Ga-PSMA-Q-1 (F), [68Ga]Ga-PSMA-Q-2 (G) and [68Ga]Ga-PSMA-Q-3 (H).
(1 picture or pasted object on this page, not shown here)

22Rv1 tumor-bearing mice = test: Biodistribution in 22Rv1 tumor-bearing mice; settings: for Uptake Blood, Mean / Uptake Bone, Mean / Uptake Heart, Mean / Uptake Kidney, Mean / Uptake Liver, Mean / Uptake Lung, Mean / Uptake Muscle, Mean / Uptake Spleen, Mean / Uptake Tumor (22Rv1), Mean: 0.74 MBq, n = 3; for Clearance profile in the kidneys: within 60 min p.i.
Protocol: (§1) The animal studies were approved by the institutional animal care and use committee of the Chinese PLA General Hospital. Healthy male ICR mice were injected with either a novel radiotracer (37 MBq in 150 μL) or saline (150 μL) for the radiotoxicity evaluation. […] Biodistribution and micro-PET studies were performed on 22Rv1 and PC-3 xenograft models, and 2-PMPA was used as the PSMA blocker (all details are shown in the Supplementary Materials).
BALB/c nude mice (male, 4-6 weeks) were inoculated subcutaneously with […]
100 mm3, the mice underwent biodistribution study and Micro-PET imaging.
The 22Rv1 tumor-bearing mice were injected with each novel radiotracer or […]
[…] Mice were sacrificed at different time points p.i. (10 min, 30 min, 60 min), tumors and interested organs were harvested, weighed and measured by a γ-counter, the results were expressed as the percentage of injected dose per gram (ID%/g).
Table S1. Uptake values for ex vivo tissues of [ 68Ga]Ga-PSMA-Q (0.74 MBq/mice) in 22Rv1 tumor-bearing mice (10, 30 and 60 min p.i., n = 3/time point).

22Rv1 tumors = test: Micro-PET imaging in 22Rv1 tumor-bearing mice; assay type: in vivo; settings: 22Rv1 tumor, 60 min p.i., 7.4 MBq
Protocol: as §1
Table S9. Tumor-to-mu scle (T/M) ratio and tumor- to-kidney (T/K) rati o of radiotracers at 60 min p.i.
The Mice bearing 22Rv1 and PC-3 (n = 3/group) xenograft tumors were […]
Co-injection with 2-PMPA (50 μ g) and each novel tracer (7.4 MBq in 150 μL) was used for blocking. Then the mice were anesthetized with 3% (v/v) isoflurane and underwent Micro-PET scans with continuous 1% (v/v) isoflurane. The images were acquired at 60 min p.i.. In comparison, […]
into another group of mice (n = 3), and Micro-PET schedule was performed as […]
Imaging was performed on a Super Nova PET/CT scanner using a 100-mm-transaxial field of view for PET and 110-mm for CT.
Three-dimensional ordered-subsets expectation maximization reconstruction

[3] = biodistribution, 22Rv1 tumor-bearing mice, 60 min p.i.

SMILES | Uptake in 22Rv1 cells (22Rv1 cells (mild PSMA+)) | Elimination half-life [2] | Uptake Blood, Mean (22Rv1 tumor-bearing mice; 10 min p.i.) | Uptake Bone, Mean (22Rv1 tumor-bearing mice; 10 min p.i.) | Uptake Heart, Mean (22Rv1 tumor-bearing mice; 10 min p.i.) | Uptake Kidney, Mean (22Rv1 tumor-bearing mice; 10 min p.i.) | Uptake Liver, Mean (22Rv1 tumor-bearing mice; 10 min p.i.) | Uptake Lung, Mean (22Rv1 tumor-bearing mice; 10 min p.i.) | Uptake Muscle, Mean (22Rv1 tumor-bearing mice; 10 min p.i.) | Uptake Spleen, Mean (22Rv1 tumor-bearing mice; 10 min p.i.) | Uptake Tumor (22Rv1), Mean (22Rv1 tumor-bearing mice; 10 min p.i.) | Uptake Blood, Mean (22Rv1 tumor-bearing mice; 30 min p.i.) | Uptake Bone, Mean (22Rv1 tumor-bearing mice; 30 min p.i.) | Uptake Kidney, Mean (22Rv1 tumor-bearing mice; 30 min p.i.) | Uptake Liver, Mean (22Rv1 tumor-bearing mice; 30 min p.i.) | Uptake Lung, Mean (22Rv1 tumor-bearing mice; 30 min p.i.) | Uptake Muscle, Mean (22Rv1 tumor-bearing mice; 30 min p.i.) | Uptake Spleen, Mean (22Rv1 tumor-bearing mice; 30 min p.i.) | Uptake Tumor (22Rv1), Mean (22Rv1 tumor-bearing mice; 30 min p.i.) | Uptake Blood, Mean (22Rv1 tumor-bearing mice; 60 min p.i.) | other results
O=C([O-])CN1CCN(CC(=O)[O-])CCN(CC(=O)NCC2CCC(C(=O)NC(Cc3ccncc3)C(=O)NCCCCC(NC(=O)NC(CCC(=O)O)C(=O)O)C(=O)O)CC2)CCN(CC(=O)O)CC1.[68Ga+3] (centres unmarked) [[^68Ga]Ga-PSMA-4PY] | 3.01 ± 0.47 IA%/10^6 | 15.15 ± 0.32 min | 1.68 ID%/g | 0.56 ID%/g | 1.87 ID%/g | 2.15 ID%/g | 1.53 ID%/g | 0.83 ID%/g | 0.67 ID%/g | 0.59 ID%/g | 1.56 ID%/g | 0.68 ID%/g | 0.28 ID%/g | 2.08 ID%/g | 0.78 ID%/g | 0.50 ID%/g | 0.31 ID%/g | 0.47 ID%/g | 1.83 ID%/g | 0.21 ID%/g | Log p pH = 7.4 [1]: −3.49 ± 0.01; Uptake Heart, Mean (22Rv1 tumor-bearing mice; 30 min p.i.): 0.86 ID%/g; Uptake Bone, Mean (22Rv1 tumor-bearing mice; 60 min p.i.): 0.21 ID%/g; Uptake Heart, Mean (22Rv1 tumor-bearing mice; 60 min p.i.): 0.58 ID%/g; Uptake Liver, Mean (22Rv1 tumor-bearing mice; 60 min p.i.): 0.47 ID%/g; Uptake Lung, Mean (22Rv1 tumor-bearing mice; 60 min p.i.): 0.25 ID%/g; Uptake Muscle, Mean (22Rv1 tumor-bearing mice; 60 min p.i.): 0.14 ID%/g; Uptake Spleen, Mean (22Rv1 tumor-bearing mice; 60 min p.i.): 0.33 ID%/g; Uptake Tumor (22Rv1), Mean (22Rv1 tumor-bearing mice; 60 min p.i.): 2.15 ID%/g; Uptake Tumor (22Rv1), Mean (22Rv1 tumor-bearing mice; 60 min p.i., listed as [^68Ga]Ga-PSMA-Q-4PY): 2.15 ± 0.46 ID%/g; Clearance profile in the kidneys (22Rv1 tumor-bearing mice): remained relatively stable; SUVmax of tumor (22Rv1 tumors): 0.69 ± 0.26
O=C([O-])CN(CCN(CC(=O)[O-])Cc1cc(CCC(=O)NCCCCCC(=O)NCCCC[C@H](NC(=O)N[C@@H](CCC(=O)O)C(=O)O)C(=O)O)ccc1[O-])Cc1cc(CCC(=O)O)ccc1[O-].[68Ga+3].[OH3+] [[^68Ga]Ga-PSMA-11, reference compound] | 3.19 ± 0.27 IA%/10^6 | 16.69 ± 1.77 min | 2.28 ID%/g | 0.72 ID%/g | 2.54 ID%/g | 10.20 ID%/g | 1.53 ID%/g | 0.77 ID%/g | 0.81 ID%/g | 0.99 ID%/g | 1.61 ID%/g | 0.91 ID%/g | 0.30 ID%/g | 2.76 ID%/g | 0.78 ID%/g | 0.53 ID%/g | 0.30 ID%/g | 0.53 ID%/g | 1.90 ID%/g | 0.22 ID%/g | Uptake Bone, Mean (22Rv1 tumor-bearing mice; 60 min p.i.): 0.17 ID%/g; Uptake Heart, Mean (22Rv1 tumor-bearing mice; 60 min p.i.): 0.53 ID%/g; Uptake Kidney, Mean (22Rv1 tumor-bearing mice; 60 min p.i.): 1.61 ID%/g; Uptake Liver, Mean (22Rv1 tumor-bearing mice; 60 min p.i.): 0.47 ID%/g; Uptake Lung, Mean (22Rv1 tumor-bearing mice; 60 min p.i.): 0.21 ID%/g; Uptake Muscle, Mean (22Rv1 tumor-bearing mice; 60 min p.i.): 0.14 ID%/g; Uptake Spleen, Mean (22Rv1 tumor-bearing mice; 60 min p.i.): 0.40 ID%/g; Uptake Tumor (22Rv1), Mean (22Rv1 tumor-bearing mice; 60 min p.i.): 2.38 ID%/g; SUVmax of tumor (22Rv1 tumors): 0.76 ± 0.18
O=C([O-])CN1CCN(CC(=O)[O-])CCN(CC(=O)NCCCCCC(=O)NC(Cc2cnc3ccccc3c2)C(=O)NCCCCC(NC(=O)NC(CCC(=O)O)C(=O)O)C(=O)O)CCN(CC(=O)O)CC1.[68Ga+3] (centres unmarked) [[^68Ga]Ga-PSMA-Q-2] | 2.99 ± 0.15 IA%/10^6 | 20.22 ± 0.97 min | 1.87 ID%/g | 1.12 ID%/g | 1.76 ID%/g | 13.88 ID%/g | 1.62 ID%/g | 0.83 ID%/g | 0.65 ID%/g | 2.34 ID%/g | 1.34 ID%/g | 0.69 ID%/g | 0.71 ID%/g | 20.74 ID%/g | 1.21 ID%/g | 0.61 ID%/g | 0.37 ID%/g | 1.41 ID%/g | 1.87 ID%/g | 0.47 ID%/g | Uptake Heart, Mean (22Rv1 tumor-bearing mice; 30 min p.i.): 1.08 ID%/g; Uptake Bone, Mean (22Rv1 tumor-bearing mice; 60 min p.i.): 0.53 ID%/g; Uptake Heart, Mean (22Rv1 tumor-bearing mice; 60 min p.i.): 0.50 ID%/g; Uptake Kidney, Mean (22Rv1 tumor-bearing mice; 60 min p.i.): 26.62 ID%/g; Uptake Liver, Mean (22Rv1 tumor-bearing mice; 60 min p.i.): 0.52 ID%/g; Uptake Lung, Mean (22Rv1 tumor-bearing mice; 60 min p.i.): 0.55 ID%/g; Uptake Muscle, Mean (22Rv1 tumor-bearing mice; 60 min p.i.): 0.16 ID%/g; Uptake Spleen, Mean (22Rv1 tumor-bearing mice; 60 min p.i.): 1.05 ID%/g; Uptake Tumor (22Rv1), Mean (22Rv1 tumor-bearing mice; 60 min p.i.): 2.15 ± 0.33 ID%/g; Uptake Tumor (22Rv1), Mean (22Rv1 tumor-bearing mice; 60 min p.i., listed as [68Ga]Ga-PSMA-Q-2): 2.15 ID%/g; Tumor-to-kidney (T/K) ratio (22Rv1 tumor-bearing mice; [3]): 0.08 ± 0.02; Tumor-to-muscle (T/M) ratio (22Rv1 tumor-bearing mice; [3]): 13.41 ± 0.39; Clearance profile in the kidneys (22Rv1 tumor-bearing mice): continuously accumulated in the kidneys; SUVmax of tumor (22Rv1 tumors): 0.47 ± 0.11
